Drawing on PubChem BioAssay (NCI), this text covers GI50 and TGI for three compounds.

Test systems include CCRF-CEM leukemia; SF-539 CNS; HS 578T breast; HL-60(TB) leukemia; A549 NSCLC; RXF 393 renal; SNB-19 CNS; COLO 205 colon; HCC-2998 colon; BT-549 breast.
What all share (experiment): growth of human tumour cells (NCI), 48 h

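Protocol summary: plate cells (96-well), add compound at 5 concentrations, incubate 48 h, interpolate endpoints linearly. GI50 marks 50% less growth. At the TGI there is no net growth.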

Consider `CCCCCCCCCCCCOC1C(CNC(=O)C2OC3OC(C)(C)OC3C2NC(=O)CN2CCCCCC2)OC2OC(C)(C)OC21` (stereo not given), for which the GI50 in the experiment on CCRF-CEM leukemia was 4.58 µM; in the experiment on SF-539 CNS, 3.54 µM; with HS 578T breast, 3.79 µM; in the experiment with HL-60(TB) leukemia it was 1.87 µM; in the experiment with A549 NSCLC it was 4.46 µM; in the experiment on RXF 393 renal, 2.87 µM. Also, the GI50 was 10.3 µM in the experiment with SNB-19 CNS, 2.49 µM in the experiment with COLO 205 colon, 6 µM in the experiment on HCC-2998 colon and 9.06 µM with BT-549 breast. The TGI in the experiment on CCRF-CEM leukemia is 15.9 µM; in the experiment on SF-539 CNS, 8.58 µM; with HS 578T breast, 18.5 µM; in the experiment on HL-60(TB) leukemia, 4.39 µM; in the experiment with A549 NSCLC, 17.8 µM; in the experiment on RXF 393 renal, 8.6 µM. The TGI in the experiment on SNB-19 CNS turned out to be 23.8 µM; in the experiment on COLO 205 colon, 6.76 µM; in the experiment on HCC-2998 colon, 19.3 µM; with BT-549 breast, 22.1 µM.
`O=C1CCc2c(sc3[nH]c(=S)n(Cc4ccccc4)c(=O)c23)C1`: the GI50 in the experiment on CCRF-CEM leukemia was 2.88 µM; in the experiment with SF-539 CNS, 2.15 µM; with HS 578T breast, 3.09 µM; in the experiment with HL-60(TB) leukemia it was 1.95 µM; with A549 NSCLC, 3.29 µM; in the experiment on RXF 393 renal, 5.81 µM. For the same compound, the GI50 in the experiment on SNB-19 CNS is 3.93 µM; in the experiment with COLO 205 colon, 2.36 µM; in the experiment on HCC-2998 colon it was 2.88 µM; in the experiment on BT-549 breast, 1.82 µM. The TGI was 10.3 µM in the experiment with CCRF-CEM leukemia; 5.61 µM with SF-539 CNS; over 100 µM in the experiment with HS 578T breast; 20.2 µM in the experiment on HL-60(TB) leukemia; over 100 µM in the experiment with A549 NSCLC; over 100 µM in the experiment with RXF 393 renal. Also, the TGI in the experiment on SNB-19 CNS was over 100 µM; with COLO 205 colon it was 4.99 µM; in the experiment on HCC-2998 colon it was 14 µM; with BT-549 breast, 7.35 µM.
Consider `C/C(Cc1ccc(Cl)cc1)=C(/c1ccc(Cl)cc1)c1ccc(OCCN(C)C)cc1`, for which the GI50 in the experiment on CCRF-CEM leukemia is 4.17 µM; with SF-539 CNS, 4.77 µM; in the experiment with HS 578T breast, 4.72 µM; in the experiment on HL-60(TB) leukemia, 3.89 µM; with A549 NSCLC, 4.52 µM; in the experiment on RXF 393 renal it was 3.45 µM. Besides, the GI50 in the experiment with SNB-19 CNS was 5.04 µM; in the experiment with COLO 205 colon it was 1 µM; in the experiment on HCC-2998 colon, 2.03 µM; in the experiment with BT-549 breast it was 4.95 µM. Moreover, the TGI with CCRF-CEM leukemia amounted to 12.9 µM; in the experiment on SF-539 CNS, 9.22 µM; in the experiment with HS 578T breast, 11 µM; in the experiment on HL-60(TB) leukemia, 10 µM; in the experiment on A549 NSCLC, 10.3 µM; in the experiment on RXF 393 renal, 7.54 µM. Further, the TGI in the experiment on SNB-19 CNS was found to be 9.62 µM; with COLO 205 colon, 4.53 µM; in the experiment on HCC-2998 colon it was 6.7 µM; in the experiment with BT-549 breast it was 10 µM.
